The values that follow come from PubChem BioAssay AID1963845 (Molecular Pharmacology Branch, DTP, NCI, 2024).

A value given as a limit tells only on which side of the number the result lay.
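Also: luminescence signal used as surrogate measure of viable cells; spheroids exposed to compounds for seven days before readout.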

In the first experiment the test system is 429239-143-T-J1-PDC complex spheroid viability. Put plainly: Anticancer human tumor 429239-143-T-J1-PDC patient-derived small cell lung carcinoma cell line growth inhibition [POLQ]. The following applies: curve of first compound; second compound 0.0316 µM. The method, boiled down:
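PDC + HUVEC + MSC complex spheroids; POLQ inhibitors ± partner drugs; top conc. at/near clinical Cmax, else 10 microM (SN-38 1 microM), half-log dilutions; 37 degrees C, 5% CO2.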
For the compound `C=CC(=O)N1CCN(c2nc(=O)n(-c3c(C)ccnc3C(C)C)c3nc(-c4c(O)cccc4F)c(F)cc23)C(C)C1` (stereo unspecified) + Cc1cccc(N(C)C(=O)C2C(O)CCN2c2nc(C)cc(C(F)(F)F)c2C#N)c1, the IC50 is greater than 10 µM.

`CC(C)n1c(=O)n(C)c2cnc3cc(F)c(-c4ccc(OCCCN5CCCCC5)nc4)cc3c21` + Cc1cccc(N(C)C(=O)C2C(O)CCN2c2nc(C)cc(C(F)(F)F)c2C#N)c1: the IC50 was greater than 10 µM.

Regarding `CCc1cc2c(N3CCc4c(cc(Cn5ccnc5)cc4-c4cn(C)nc4C(F)(F)F)C3=O)cc(C)nc2c(OC)n1` + Cc1cccc(N(C)C(=O)C2C(O)CCN2c2nc(C)cc(C(F)(F)F)c2C#N)c1, the IC50 is greater than 10 µM.

For `CCc1cc2c(N3CCc4c(cc(Cn5ccnc5)cc4-c4cn(C)nc4C(F)(F)F)C3=O)ccnc2c(OC)n1` + Cc1cccc(N(C)C(=O)C2C(O)CCN2c2nc(C)cc(C(F)(F)F)c2C#N)c1, the IC50 was greater than 10 µM.

In the case of `COc1ccc([C@@H](O)c2cc(-c3ncnc4cc(N5CCOCC5)ccc34)c(F)cc2Cl)nn1` + Cc1cccc(N(C)C(=O)C2C(O)CCN2c2nc(C)cc(C(F)(F)F)c2C#N)c1, the half-inhibitory concentration (IC50) was 3.25 µM.

The same experiment, now with this note: curve of first compound; second compound 0.1 µM.
Regarding `C=CC(=O)N1CCN(c2nc(=O)n(-c3c(C)ccnc3C(C)C)c3nc(-c4c(O)cccc4F)c(F)cc23)C(C)C1` (stereo unspecified) + Cc1cccc(N(C)C(=O)C2C(O)CCN2c2nc(C)cc(C(F)(F)F)c2C#N)c1, the IC50 was greater than 10 µM.

As for `CC(C)n1c(=O)n(C)c2cnc3cc(F)c(-c4ccc(OCCCN5CCCCC5)nc4)cc3c21` + Cc1cccc(N(C)C(=O)C2C(O)CCN2c2nc(C)cc(C(F)(F)F)c2C#N)c1, the 50% inhibitory concentration (IC50) was greater than 10 µM.

As for `CCc1cc2c(N3CCc4c(cc(Cn5ccnc5)cc4-c4cn(C)nc4C(F)(F)F)C3=O)cc(C)nc2c(OC)n1` + Cc1cccc(N(C)C(=O)C2C(O)CCN2c2nc(C)cc(C(F)(F)F)c2C#N)c1, the IC50 is greater than 10 µM.

Consider `CCc1cc2c(N3CCc4c(cc(Cn5ccnc5)cc4-c4cn(C)nc4C(F)(F)F)C3=O)ccnc2c(OC)n1` + Cc1cccc(N(C)C(=O)C2C(O)CCN2c2nc(C)cc(C(F)(F)F)c2C#N)c1, for which the IC50 was greater than 10 µM.

As for `COc1ccc([C@@H](O)c2cc(-c3ncnc4cc(N5CCOCC5)ccc34)c(F)cc2Cl)nn1` + Cc1cccc(N(C)C(=O)C2C(O)CCN2c2nc(C)cc(C(F)(F)F)c2C#N)c1, the IC50 came to 2.79 µM.

Still in this experiment, the particulars now being: curve of first compound; second compound 0.316 µM.
For the compound `C=CC(=O)N1CCN(c2nc(=O)n(-c3c(C)ccnc3C(C)C)c3nc(-c4c(O)cccc4F)c(F)cc23)C(C)C1` (stereo unspecified) + Cc1cccc(N(C)C(=O)C2C(O)CCN2c2nc(C)cc(C(F)(F)F)c2C#N)c1, the IC50 is greater than 10 µM.

For `CC(C)n1c(=O)n(C)c2cnc3cc(F)c(-c4ccc(OCCCN5CCCCC5)nc4)cc3c21` + Cc1cccc(N(C)C(=O)C2C(O)CCN2c2nc(C)cc(C(F)(F)F)c2C#N)c1, the IC50 is greater than 10 µM.

Consider `CCc1cc2c(N3CCc4c(cc(Cn5ccnc5)cc4-c4cn(C)nc4C(F)(F)F)C3=O)cc(C)nc2c(OC)n1` + Cc1cccc(N(C)C(=O)C2C(O)CCN2c2nc(C)cc(C(F)(F)F)c2C#N)c1, for which the IC50 was 8.03 µM.

Turning to `CCc1cc2c(N3CCc4c(cc(Cn5ccnc5)cc4-c4cn(C)nc4C(F)(F)F)C3=O)ccnc2c(OC)n1` + Cc1cccc(N(C)C(=O)C2C(O)CCN2c2nc(C)cc(C(F)(F)F)c2C#N)c1, the IC50 is greater than 10 µM.

Take `COc1ccc([C@@H](O)c2cc(-c3ncnc4cc(N5CCOCC5)ccc34)c(F)cc2Cl)nn1` + Cc1cccc(N(C)C(=O)C2C(O)CCN2c2nc(C)cc(C(F)(F)F)c2C#N)c1: the IC50 was determined as 2.48 µM.

Staying with this experiment, now noted: curve of first compound; second compound 1 µM.
With `C=CC(=O)N1CCN(c2nc(=O)n(-c3c(C)ccnc3C(C)C)c3nc(-c4c(O)cccc4F)c(F)cc23)C(C)C1` (stereo unspecified) + Cc1cccc(N(C)C(=O)C2C(O)CCN2c2nc(C)cc(C(F)(F)F)c2C#N)c1, the IC50 is greater than 10 µM.

Regarding `CC(C)n1c(=O)n(C)c2cnc3cc(F)c(-c4ccc(OCCCN5CCCCC5)nc4)cc3c21` + Cc1cccc(N(C)C(=O)C2C(O)CCN2c2nc(C)cc(C(F)(F)F)c2C#N)c1, the IC50 is greater than 10 µM.

For the compound `CCc1cc2c(N3CCc4c(cc(Cn5ccnc5)cc4-c4cn(C)nc4C(F)(F)F)C3=O)cc(C)nc2c(OC)n1` + Cc1cccc(N(C)C(=O)C2C(O)CCN2c2nc(C)cc(C(F)(F)F)c2C#N)c1, the IC50 was 8.37 µM.

For the compound `CCc1cc2c(N3CCc4c(cc(Cn5ccnc5)cc4-c4cn(C)nc4C(F)(F)F)C3=O)ccnc2c(OC)n1` + Cc1cccc(N(C)C(=O)C2C(O)CCN2c2nc(C)cc(C(F)(F)F)c2C#N)c1, the concentration for half-maximal inhibition (IC50) was greater than 10 µM.

Take `COc1ccc([C@@H](O)c2cc(-c3ncnc4cc(N5CCOCC5)ccc34)c(F)cc2Cl)nn1` + Cc1cccc(N(C)C(=O)C2C(O)CCN2c2nc(C)cc(C(F)(F)F)c2C#N)c1: the IC50 turned out to be 3.32 µM.

Staying with this experiment, now noted: curve of first compound; second compound 3.16 µM.
For `C=CC(=O)N1CCN(c2nc(=O)n(-c3c(C)ccnc3C(C)C)c3nc(-c4c(O)cccc4F)c(F)cc23)C(C)C1` (stereo unspecified) + Cc1cccc(N(C)C(=O)C2C(O)CCN2c2nc(C)cc(C(F)(F)F)c2C#N)c1, the 50% inhibitory concentration (IC50) was greater than 10 µM.

`CC(C)n1c(=O)n(C)c2cnc3cc(F)c(-c4ccc(OCCCN5CCCCC5)nc4)cc3c21` + Cc1cccc(N(C)C(=O)C2C(O)CCN2c2nc(C)cc(C(F)(F)F)c2C#N)c1: the IC50 was greater than 10 µM.

Take `CCc1cc2c(N3CCc4c(cc(Cn5ccnc5)cc4-c4cn(C)nc4C(F)(F)F)C3=O)cc(C)nc2c(OC)n1` + Cc1cccc(N(C)C(=O)C2C(O)CCN2c2nc(C)cc(C(F)(F)F)c2C#N)c1: the IC50 is greater than 10 µM.

`CCc1cc2c(N3CCc4c(cc(Cn5ccnc5)cc4-c4cn(C)nc4C(F)(F)F)C3=O)ccnc2c(OC)n1` + Cc1cccc(N(C)C(=O)C2C(O)CCN2c2nc(C)cc(C(F)(F)F)c2C#N)c1: the concentration for half-maximal inhibition (IC50) was greater than 10 µM.

In the case of `COc1ccc([C@@H](O)c2cc(-c3ncnc4cc(N5CCOCC5)ccc34)c(F)cc2Cl)nn1` + Cc1cccc(N(C)C(=O)C2C(O)CCN2c2nc(C)cc(C(F)(F)F)c2C#N)c1, the IC50 amounted to 2.88 µM.

Staying with this experiment, now noted: curve of first compound; second compound 10 µM.
For the compound `C=CC(=O)N1CCN(c2nc(=O)n(-c3c(C)ccnc3C(C)C)c3nc(-c4c(O)cccc4F)c(F)cc23)C(C)C1` (stereo unspecified) + Cc1cccc(N(C)C(=O)C2C(O)CCN2c2nc(C)cc(C(F)(F)F)c2C#N)c1, the IC50 was greater than 10 µM.

The term IC50 denotes the concentration that gives 50% inhibition.
